# Reference: publication PMC8018653, “Gender-based differences in brain and plasma pharmacokinetics of letrozole in sprague-dawley rats: Application of physiologically-based pharmacokinetic modeling to gain quantitative insights” (PLoS ONE, 2021)
# Values joined by “and” are separate entries in the source; they are usually repeats but may differ in a detail not shown here. Identical values can stand only once. “Also recorded” adds a separate entry of the source. Like-named read-outs stand apart in the source and are kept apart here. Marks after values point to notes of the source that are not given here.
# Assays:
# [1] = parameters: method as in PMID 23748921; settings: cited from earlier work
# [2] = In vivo unbound fraction in brain (brain ECF / whole brain tissue homogenate); settings: Sprague-Dawley, rat, ip, healthy and tumor-bearing female rats, 4 mg/kg i.p., ~6 hrs, mean ± SD, read-out: Fraction unbound in brain (fu, brain)
# Excerpt: Simcyp Animal Simulator V17 (Certara Inc.) was employed for developing a bottom-up whole body PBPK model incorporating the specified multi-compartment brain model. Based on its anatomy and physiology, the whole brain is described by three compartments, viz. brain blood, brain mass and cerebrospinal fluid (CSF) as illustrated in Fig 1 (Simcyp® Rat Simulator). For model development, the physiological/ system-specific parameters were inferred from the existing rodent species within the animal simulator while, the key drug- specific parameters used are summarized in Table 1. Briefly, all the physiochemical and binding to blood components (plasma proteins and erythrocytes) parameters of letrozole were derived from expansive literature review. […] Full-PBPK model was employed for drug distribution while the Rodgers and Rowland method or “Method 2”, as defined in Simcyp v17, predicted the volume of distribution (Vss). For the multi-compartment brain model, the passive permeability-surface area product on the BBB (PSB) was determined using the Crone- Renkin Equation [25, 26]: PSB=−Fpfln(1−Kin/Fpf) (3) where, Fpf is the cerebral blood or perfusion flow rate and Kin is the brain uptake clearance. […] The fu, brain for letrozole was experimentally determined in both healthy and tumor-bearing female Sprague-Dawley rats (N = 4/ group).
# [3] = parameters: method as in PMID 30357450; settings: NSG mice; cited from earlier work
# [4] = PBPK input; ref Chemicalize database; cited from earlier work
# [5] = cited from earlier work
# [6] = Passive permeability-surface area products by Crone-Renkin equation
# Excerpt: Simcyp Animal Simulator V17 (Certara Inc.) was employed for developing a bottom-up whole body PBPK model incorporating the specified multi-compartment brain model. Based on its anatomy and physiology, the whole brain is described by three compartments, viz. brain blood, brain mass and cerebrospinal fluid (CSF) as illustrated in Fig 1 (Simcyp® Rat Simulator). For model development, the physiological/ system-specific parameters were inferred from the existing rodent species within the animal simulator while, the key drug- specific parameters used are summarized in Table 1. Briefly, all the physiochemical and binding to blood components (plasma proteins and erythrocytes) parameters of letrozole were derived from expansive literature review. […] Full-PBPK model was employed for drug distribution while the Rodgers and Rowland method or “Method 2”, as defined in Simcyp v17, predicted the volume of distribution (Vss). For the multi-compartment brain model, the passive permeability-surface area product on the BBB (PSB) was determined using the Crone- Renkin Equation [25, 26]: PSB=−Fpfln(1−Kin/Fpf) (3) where, Fpf is the cerebral blood or perfusion flow rate and Kin is the brain uptake clearance. […] The passive permeability-surface area product on the blood-cerebrospinal fluid barrier (BCSFB), PSC, was assumed as half of the PSB [19, 27] while the passive permeability-surface area product on the cerebrospinal fluid-brain barrier (CSFBB), PSE, was set at 80 mL/min, assuming a high permeability of this barrier. Brain ECF concentrations were predicted using the in vivo unbound fraction in the brain (fu, brain) for letrozole multiplied by the simulated total brain concentrations. The fu, brain for letrozole was experimentally determined in both healthy and tumor-bearing female Sprague-Dawley rats (N = 4/ group).
# [7] = Steady state plasma pharmacokinetics (4 mg/kg i.p. once daily), NCA; format: in vivo, Sprague-Dawley rats; settings: for Cmax / Tmax / AUC(0-t): Sprague-Dawley, rat, ip; for Cmax / Tmax / Rac’ (theoretical/predicted accumulation ratio, Eq 2) / AUC(0-t): plasma; for Cmax: read-out: Cmax, plasma total; for Tmax: read-out: Tmax, plasma total; for AUC 0–12, plasma unbound / AUC 0–24, plasma unbound / Cmax, plasma unbound: fraction unbound 0.38; for AUC(0-t): 4 mg/kg
# Description: (§1) Age-matched (7–9 weeks) adult female (201–225 g; N = 10) and male (301–325 g; N = 10) jugular vein cannulated Sprague-Dawley rats (Charles River Laboratories) were used for this study. The experiments were conducted in strict accordance with the University of Cincinnati Institutional Animal Care and Use Committee (UC IACUC)-approved protocol (Protocol Number: 10-11-01-01) and all the studies were performed as per the highest international standards of animal welfare outlined by the NIH’s Guide for the Care and Use of Laboratory Animals. Upon arrival, animals were housed individually under pathogen-free, temperature and humidity-controlled environment on a 12/12 h light/dark cycle and were given access to standard chow and water ad libitum (ad-lib). To maintain the patency of the jugular vein catheters, they were flushed with normal saline and locked with the heparin-dextrose solution every other day.
# (§2) Letrozole was extracted from the plasma samples using the liquid-liquid extraction technique. Calibration standards were freshly prepared by spiking working letrozole solution into the blank rat plasma to give a concentration curve ranging from 5 to 5000 ng/ml. Briefly, 50 μl of the plasma sample/standard spiked with known letrozole concentration was transferred to a glass tube containing 1 mL of the extraction solvent methyl-tertiary-butyl ether. All the samples were then vortex mixed for 40 sec and centrifuged for 5 min. 800 μl of the supernatant was decanted into a clean test tube and evaporated to dryness using a CentriVap evaporator. The precipitate was reconstituted in 100 μl of the mobile phase and vortex mixed, following which, 50 μl sample volume was injected onto the HPLC system for analysis. The dialysis samples, on the other hand, were injected directly onto HPLC.
# [8] = parameters: method as in PMID 17045772; settings: rat liver microsomes; cited from earlier work
# [9] = Single dose plasma pharmacokinetics (4 mg/kg i.p.), NCA; format: in vivo, Sprague-Dawley rats; settings: for Cmax / Tmax / AUC(0-t) / half-life: ip; for Cmax / Tmax / CL (systemic clearance), plasma / Half-life t1/2, plasma / AUC 0–12, plasma unbound / AUC 0–72, plasma unbound / Cmax, plasma unbound / AUC(0-t) / half-life: single dose 4 mg/kg i.p.; for Cmax: read-out: Cmax, plasma total; for Tmax: read-out: Tmax, plasma total; for AUC 0–12, plasma unbound / AUC 0–72, plasma unbound / Cmax, plasma unbound: fraction unbound 0.38; for half-life: read-out: Half-life t1/2, plasma (converted)
# Description: as §1
# Within 10 minutes of collection, plasma was separated by centrifugation of the blood samples at 4,000 rpm for 15 min. Microdialysis samples were collected simultaneously through the probes at the same time points from 0–12 hours.
# as §2
# P-glycoprotein (P-gp) = settings: cited from earlier work
# C6 orthotopic tumor = tested on: C6 orthotopic tumor; parameters: method as in PMID 25695958; settings: C6 orthotopic glioma, rats, 4 mg/kg; cited from earlier work
# [10] = female rats, steady state, 4 mg/kg i.p. daily for 11 days
# [11] = male rats, steady state, 4 mg/kg i.p. daily for 5 days
# [12] = female rats, steady state, 11 days
# [13] = male rats, steady state, 5 days
# [14] = Sprague-Dawley, rat, plasma, female rats
# [15] = Sprague-Dawley, rat, plasma, male rats
smiles,measurement,setting,value
N#Cc1ccc(C(c2ccc(C#N)cc2)n2cncn2)cc1 [letrozole],brain-to-plasma partition coefficients,"[1]; brain and brain tumor tissue, female Sprague-Dawley rats",0.5–1.0
same,intra-tumoral levels relative to the contralateral tumor-free region,[1],1.5 to 2 fold
same,fraction unbound,[2],0.58
same,half-life,[3],~ 3 hrs
same,Intrinsic solubility,[4],0.062 mg/mL
same,logP,[4],≈ 2.5
same,Blood-to-plasma partition ratio,"[5]; PBPK input, ref CDER NDA 20–726",0.8
same,plasma protein binding,[5],≈ 60%
same,PSC (passive permeability-surface area product on the BCSFB),[6]; Assumed to be half of PSB,0.42 mL/min
same,PSB (passive permeability-surface area product on the BBB),"[6]; Determined using Eq (3), assuming 1800 mg brain weight",0.84^b mL/min
same,PSB,[6]; Eq (3),"bBased on PSB = 0.469 mL/min/g brain weight, assuming 1800 mg brain weight."
same,Cmax,[7]; [10],4.83 µg/mL
same,Tmax,[7]; [10],5.3 h
same,Cmax,[7]; [11],1.49 µg/mL
same,Tmax,[7]; [11],3.3 h
same,"Rac plasma (observed accumulation ratio, AUC0-12)","[7]; female rats, Day 11 / Day 1",4.2
same,"Rac plasma (observed accumulation ratio, Cmax)","[7]; female rats, Day 11 / Day 1",4.0
same,"Rac’ (theoretical/predicted accumulation ratio, Eq 2)",[7]; female rats,2.6
same,"CL (systemic clearance), plasma",[7]; [10],39.3 (5.5)* ml/h/kg
same,"AUC 0–12, plasma unbound",[7]; [12],18734 (2360) h.ng/ml
same,"AUC 0–24, plasma unbound",[7]; [12],39129 (5267) h.ng/ml
same,"Cmax, plasma unbound",[7]; [12],1835 (359) ng/ml
same,AUC(0-t),"[7]; female, female rats, steady state, 4 mg/kg i.p. daily for 11 days, read-out: AUC 0–12, plasma total",49.3 µg·h/mL
same,AUC(0-t),"[7]; female, female rats, steady state, 4 mg/kg i.p. daily for 11 days, read-out: AUC 0–24, plasma total",103 µg·h/mL
same,AUC(0-t),"[7]; female, female rats, steady state, 4 mg/kg i.p. daily for 11 days, read-out: plasma AUC 0–24",103 µg·h/mL
same,observed accumulation at steady state (plasma Cmax and AUC0-12),[7]; male rats,approximately 1.4 fold
same,"Rac plasma (observed accumulation ratio, AUC0-12)","[7]; male rats, Day 5 / Day 1",1.4
same,"Rac plasma (observed accumulation ratio, Cmax)","[7]; male rats, Day 5 / Day 1",1.4
same,"Rac’ (theoretical/predicted accumulation ratio, Eq 2)",[7]; male rats,1.2
same,"CL (systemic clearance), plasma",[7]; [11],200.6 (98) ml/h/kg
same,"AUC 0–12, plasma unbound",[7]; [13],5624 (2430) h.ng/ml
same,"AUC 0–24, plasma unbound",[7]; [13],9424 (4660) h.ng/ml
same,"Cmax, plasma unbound",[7]; [13],566 (209) ng/ml
same,AUC(0-t),"[7]; male, male rats, steady state, 4 mg/kg i.p. daily for 5 days, read-out: AUC 0–12, plasma total",14.8 µg·h/mL
same,AUC(0-t),"[7]; male, male rats, steady state, 4 mg/kg i.p. daily for 5 days, read-out: AUC 0–24, plasma total",24.8 µg·h/mL
same,AUC(0-t),"[7]; male, male rats, steady state, 4 mg/kg i.p. daily for 5 days, read-out: plasma AUC 0–24",24.8 µg·h/mL
same,"systemic clearance, difference between male and female rats",[7]; steady state,approximately 5.0 fold
same,"overall intrinsic clearance and formation rate of the carbinol metabolite, male versus female rats",[8],about 3.0 fold
same,clearance,"[9]; Sprague-Dawley, rat, plasma, intraperitoneal, 4 mg/kg, female rats, read-out: clearance observed in this study",~0.25 mL/min
same,Cmax,[9]; [14],1.2 µg/mL
same,Tmax,[9]; [14],8.5 h
same,Cmax,[9]; [15],1.06 µg/mL
same,Tmax,[9]; [15],6.5 h
same,"CL (systemic clearance), plasma",[9]; female rats,57.4 (13.0)*** ml/h/kg
same,"Half-life t1/2, plasma","[9]; female rats, 4 mg/kg",34.0 (3.6)*** h
same,"AUC 0–12, plasma unbound",[9]; female rats,4446 (1160) h.ng/ml
same,"AUC 0–72, plasma unbound",[9]; female rats,20668 (4980) h.ng/ml
same,"Cmax, plasma unbound",[9]; female rats,456 (60) ng/ml
same,AUC(0-t),"[9]; female, Sprague-Dawley, rat, plasma, 4 mg/kg, female rats, read-out: AUC 0–12, plasma total",11.7 µg·h/mL
same,AUC(0-t),"[9]; female, Sprague-Dawley, rat, plasma, 4 mg/kg, female rats, read-out: AUC 0–72, plasma total",54.4 µg·h/mL
same,half-life,"[9]; female, Sprague-Dawley, rat, plasma, 4 mg/kg, female rats",~34 h
same,"CL (systemic clearance), plasma","[9]; male rats, 4 mg/kg",145.9 ± 14.0 ml/h/kg and 146 (14.0) ml/h/kg
same,"Half-life t1/2, plasma","[9]; male rats, 4 mg/kg",9.2 (2.4) h and 9.23 h
same,"AUC 0–12, plasma unbound",[9]; male rats,4066 (1140) h.ng/ml
same,"AUC 0–72, plasma unbound",[9]; male rats,9447 (1920) h.ng/ml
same,"Cmax, plasma unbound",[9]; male rats,403 (136) ng/ml
same,AUC(0-t),"[9]; male, Sprague-Dawley, rat, plasma, 4 mg/kg, male rats, read-out: AUC 0–12, plasma total",10.7 µg·h/mL
same,AUC(0-t),"[9]; male, Sprague-Dawley, rat, plasma, 4 mg/kg, male rats, read-out: AUC 0–72, plasma total",24.9 µg·h/mL
same,half-life,"[9]; male, Sprague-Dawley, rat, plasma, 4 mg/kg, male rats",~9 h
same,substrate for the efflux transporter P-glycoprotein (P-gp),P-glycoprotein (P-gp),not a substrate
same,in vivo efficacy (tumor mass / volume),C6 orthotopic tumor,marked reduction in the tumor mass; also recorded: marked reduction in tumor volume
